Reference: patent EP4582426A1, “PAN-KRAS INHIBITOR COMPOUND” (Adlai Nortye Biopharma Co., Ltd., priority 2022, dated 2024)

Assays:
[1] = system: AsPC-1 (G12D); assay: In vitro cell proliferation inhibition test (CellTiter-Glo Luminescent Cell Viability Assay); assay type: cell-based; conditions: AsPC-1 cell line, Pancreas, KRAS (p.G12D), cells and compounds co-incubated 72 hours
Excerpt: (§1) Due to the diversity of RAS mutations and in order to evaluate the activity of compounds in different RAS mutant cell lines, we selected KRAS^WT, KRAS^G12C, KRAS^G12D), KRAS^G12V and BRAF mutant cell lines (see the table below) for in vitro activity evaluation and screening of compounds .
(§2) Experimental protocol: CellTiter-Glo® Cell Luminescent Viability Assay (Promega)
(§3) According to the doubling time of different cell lines, different numbers of cells (1000-5000 cells/well) were inoculated into 96-well plates containing 180 µl of the corresponding medium, and cultured overnight in a 37°C cell incubator containing 5% CO2. On the second day, the compound to be tested was pre-diluted 3-fold with the medium, the highest concentration was 100 µM, and there were 10 concentration gradients in total; then 20 µl of the medium containing different concentrations of the compound was added to the cells in the 96-well plate to ensure the final concentration of the compound to be up to 10 µM, with 10 concentration gradients of 3-fold dilutions. After co-incubating cells and compounds for 72 hours, the 96-well plate was taken out of the incubator, placed at room temperature for 30 minutes, and then 25 µl CellTiter-Glo® Reagent was added to each well to mix well, and incubated at room temperature for 10 minutes, and then 100 µl of the sample was transferred to a white 96-well plate (OptiPlateTM-96, PerkinElmer), the […] signal value was read using a multi-functional microplate reader (SpectraMax® i3x, Molecular devices). Subsequently, the signal value was standardized, and the four-parameter fitting regression equation was used for curve fitting to calculate the half maximal inhibitory concentration (IC50) of the compound on the cell line. Table 3: Antiproliferative activity of compounds of the present invention on KRAS cell mutants

[2] = system: SW480 (G12V); assay: as above; assay type: cell-based; conditions: SW480 cell line, Large intestine, Colon, KRAS (p.G12V), cells and compounds co-incubated 72 hours
Excerpt: as §1, §2, §3

Structure (SMILES)	IC50 [1]	IC50 [2]	further results
CCn1c(-c2cc(C#CCN3CCOCC3)cnc2[C@H](C)OC)c2c3cc(ccc31)-c1csc(n1)C[C@H](NC(=O)[C@H]1C[C@@H]1C)C(=O)N1CCC[C@H](N1)C(=O)OCC(C)(C)C2 (single isomer, unassigned) [Example 1]	0.92 nM	1.02 nM	IC50 ([1]; listed as 1'): 582 nM; IC50 ([2]; listed as 1'): 343 nM
CO[C@@H](C)c1ncc(C#CCN2CCOCC2)cc1-c1c2c3cc(ccc3n1CC(F)(F)F)-c1csc(n1)C[C@H](NC(=O)[C@H]1C[C@@H]1C)C(=O)N1CCC[C@H](N1)C(=O)OCC(C)(C)C2 (single isomer, unassigned) [Example 3]	3.5 nM	2.2 nM	IC50 ([1]; listed as 3'): 292 nM; IC50 ([2]; listed as 3'): 2060 nM
CCn1c(-c2cc(C#CCN3CCO[C@@H](C)C3)cnc2[C@H](C)OC)c2c3cc(ccc31)-c1csc(n1)C[C@H](NC(=O)[C@H]1C[C@@H]1C)C(=O)N1CCC[C@H](N1)C(=O)OCC(C)(C)C2 (single isomer, unassigned) [Example 4]	4.9 nM	2.9 nM	IC50 ([1]; listed as 4'): 523 nM; IC50 ([2]; listed as 4'): 813 nM
CCn1c(-c2cc(C#CCCN3CCOCC3)cnc2[C@H](C)OC)c2c3cc(ccc31)-c1csc(n1)C[C@H](NC(=O)[C@H]1C[C@@H]1C)C(=O)N1CCC[C@H](N1)C(=O)OCC(C)(C)C2 (single isomer, unassigned) [Example 5]	3220 nM	24.6 nM	IC50 ([2]; listed as 5'): 2020 nM
CCn1c(-c2cc(C#CC3CN(C)CCO3)cnc2C(C)OC)c2c3cc(ccc31)-c1csc(n1)CC(NC(=O)C1CC1C)C(=O)N1CCCC(N1)C(=O)OCC(C)(C)C2 (single isomer, unassigned) [Example 6]	14 nM	18.5 nM	IC50 ([1]; listed as 6'): 3960 nM; IC50 ([2]; listed as 6'): 1830 nM
CCn1c(-c2cc(C#CC3CN(C)CCO3)cnc2C(C)OC)c2c3cc(ccc31)-c1csc(n1)CC(NC(=O)C1CC1C)C(=O)N1CCCC(N1)C(=O)OCC(C)(C)C2 (single isomer, unassigned) [Example 8]	17.9 nM	18.9 nM	IC50 ([1]; listed as 8'): 3870 nM; IC50 ([2]; listed as 8'): 2030 nM
CCn1c(-c2cc(C#CCN3C[C@@H](C)O[C@@H](C)C3)cnc2[C@H](C)OC)c2c3cc(ccc31)-c1csc(n1)C[C@H](NC(=O)[C@H]1C[C@@H]1C)C(=O)N1CCC[C@H](N1)C(=O)OCC(C)(C)C2 (single isomer, unassigned) [Example 9]	4.5 nM	31.6 nM	IC50 ([1]; listed as 9'): 1360 nM; IC50 ([2]; listed as 9'): 963 nM
CCn1c(-c2cc(C#CC3CCN(C)C3)cnc2C(C)OC)c2c3cc(ccc31)-c1csc(n1)CC(NC(=O)C1C(C)C1C)C(=O)N1CCCC(N1)C(=O)OCC(C)(C)C2 (single isomer, unassigned) [Example 18]	3.4 nM	0.42 nM	
CCn1c(-c2cc(C#CC3(C)CN(C)C3)cnc2C(C)OC)c2c3cc(ccc31)-c1csc(n1)CC(NC(=O)C1C(C)C1C)C(=O)N1CCCC(N1)C(=O)OCC(C)(C)C2 (single isomer, unassigned) [Example 19]	2.2 nM	1.5 nM	
CCn1c(-c2cc(C#CCN3CCOC(CO)C3)cnc2C(C)OC)c2c3cc(ccc31)-c1csc(n1)CC(NC(=O)C1CC1C)C(=O)N1CCCC(N1)C(=O)OCC(C)(C)C2 (single isomer, unassigned) [Example 20]	2.4 nM	8.9 nM	
CCn1c(-c2cc(C#CCN3CCC(F)C3)cnc2C(C)OC)c2c3cc(ccc31)-c1csc(n1)CC(NC(=O)C1C(C)C1C)C(=O)N1CCCC(N1)C(=O)OCC(C)(C)C2 (single isomer, unassigned) [Example 21]	0.82 nM	1.1 nM	
CCn1c(-c2cc(C#CCN3CCOCC3)cnc2[C@H](C)OC)c2c3cc(ccc31)-c1csc(n1)C[C@H](NC(=O)[C@H]1C[C@@H]1c1ccccc1)C(=O)N1CCC[C@H](N1)C(=O)OCC(C)(C)C2 (single isomer, unassigned) [Example 23]	1.6 nM	3.8 nM	
CCn1c(-c2cc(C#CCN3CCOCC3)cnc2C(C)OC)c2c3cc(ccc31)-c1csc(n1)CC(NC(=O)C1CC1F)C(=O)N1CCCC(N1)C(=O)OCC(C)(C)C2 (single isomer, unassigned) [Example 24]	24.2 nM	58.4 nM	
CCn1c(-c2cc(C#CCN3CCOCC3CO)cnc2C(C)OC)c2c3cc(ccc31)-c1csc(n1)CC(NC(=O)C1C(C)C1C)C(=O)N1CCCC(N1)C(=O)OCC(C)(C)C2 (single isomer, unassigned) [Example 25]	0.35 nM	0.51 nM	
CCn1c(-c2cc(C#CCN3CCOCC3)cnc2[C@H](C)OC)c2c3cc(ccc31)-c1csc(n1)C[C@H](NC(=O)C1(C(F)(F)F)CC1)C(=O)N1CCC[C@H](N1)C(=O)OCC(C)(C)C2 (single isomer, unassigned) [Example 26]	20.8 nM	34.6 nM	
CCn1c(-c2cc(C#Cc3cnccn3)cnc2[C@H](C)OC)c2c3cc(ccc31)-c1csc(n1)C[C@H](NC(=O)[C@H]1C[C@@H]1C)C(=O)N1CCC[C@H](N1)C(=O)OCC(C)(C)C2 (single isomer, unassigned) [Example 27]	4.6 nM	14.5 nM	
CCn1c(-c2cc(C#Cc3cccc4c3CN(C)C4)cnc2[C@H](C)OC)c2c3cc(ccc31)-c1csc(n1)C[C@H](NC(=O)[C@H]1C[C@@H]1C)C(=O)N1CCC[C@H](N1)C(=O)OCC(C)(C)C2 (single isomer, unassigned) [Example 30]	8.2 nM	84.2 nM	
CCNc1cccc(C#Cc2cnc([C@H](C)OC)c(-c3c4c5cc(ccc5n3CC)-c3csc(n3)C[C@H](NC(=O)[C@H]3C[C@@H]3C)C(=O)N3CCC[C@H](N3)C(=O)OCC(C)(C)C4)c2)n1 (single isomer, unassigned) [Example 31]	78 nM	100 nM	
CCNc1ccc(C#Cc2cnc(C(C)OC)c(-c3c4c5cc(ccc5n3CC)-c3csc(n3)CC(NC(=O)C3C(C)C3C)C(=O)N3CCCC(N3)C(=O)OCC(C)(C)C4)c2)nn1 [32+32, (1r,2R,3S)-N-((6^3S,4S,Z)-1^1-ethyl-1^2-(5-((6-(ethylamino)pyridazin-3-yl)ethynyl)-2-((S)-1-methoxyethyl)pyridin-3-yl)-10,10-dimethyl-5,7-dioxo-6^1,6^2,6^3,6^4,6^5,6^6-hexahydro-1^1H-8-oxa-2(4,2)-thiazola-1(5,3)-indola-6(1,3)-pyridazinacycloundecaphane-4-yl)-2,3-dimethylcyclopropane-1-carboxamide]	15.3 nM	55.4 nM	
CCn1c(-c2cc(C#CC3CCCN3C)cnc2C(C)OC)c2c3cc(ccc31)-c1csc(n1)CC(NC(=O)C1C(C)C1C)C(=O)N1CCCC(N1)C(=O)OCC(C)(C)C2 [Example 11, (1r,2R,3S)-N-((63S,4S,Z)-11-ethyl-12-(2-((S)-1-methoxyethyl)-5-(((S)-1-methylpyrrolidin-2-yl)ethynyl)pyridin-3-yl)-10,10-dimethyl-5,7-dioxo-61,62,63,64,65,66-hexahydro-11H-8-oxa-2(4,2)-thiazola-1(5,3)-indola-6(1,3)-pyridazinacyclonecaphane-4-yl)-2,3-dimethylcyclopropane-1-carboxamide]	1.7 nM		
